Patent US5747447A, “Stable polypeptide composition” (COR Therapeutics, priority 1995, dated 1998)
*1 amine or outer side, *2 acyl side, *3 side chain or, on linkers, in order; H or OH if unused. Where a SMILES comes first, the peptide text is derived from it. Bridges are numbered along the chain shown (N, C = ends). Where no end group is shown, it is not given here. [ ]: non-standard residue; d: D form. Phe(4-NO2) = N[C@@H](Cc1ccc([N+](=O)[O-])cc1)C(=O)O; Phe(4-Cl) = N[C@@H](Cc1ccc(Cl)cc1)C(=O)O; X2 = CC(=N)NCCCC[C@H](N[*:1])C(=O)[*:2]; 2Nal = N[C@@H](Cc1ccc2ccccc2c1)C(=O)O; NMeR = CN[C@@H](CCCNC(=N)N)C(=O)O; hArg = N=C(N)NCCCC[C@H](N)C(=O)O; NMeL = CN[C@@H](CC(C)C)C(=O)O; Pen = CC(C)(S)[C@H](N)C(=O)O; Pip = O=C(O)[C@@H]1CCCCN1; NMeA = CN[C@@H](C)C(=O)O; Orn = NCCC[C@H](N)C(=O)O; Thz = O=C(O)[C@@H]1CSCN1; Mpa = O=C(O)CCS

Molecular target: ADP-induced human platelet aggregation (Homo sapiens, UniProt P05106+P08514)
Assay: standard aggregation inhibition assay (ADP-induced human platelet aggregation)
Format: cell-based
Conditions: ADP-induced human platelet aggregation; read-out: Appr, IC50
Text: 2. Standard assays directly applied to platelet aggregation, such as those described by Gann, Z.-R., et al., J Biol Chem (1988) 263:19827-19832; Huang, T. F., et al., J Biol Chem (1987) 262:16157-16163; Biochemistry (1989) 28:661-666, cited above and incorporated herein by reference;

ADP-induced human platelet aggregation, sequence (P08514 32-1039): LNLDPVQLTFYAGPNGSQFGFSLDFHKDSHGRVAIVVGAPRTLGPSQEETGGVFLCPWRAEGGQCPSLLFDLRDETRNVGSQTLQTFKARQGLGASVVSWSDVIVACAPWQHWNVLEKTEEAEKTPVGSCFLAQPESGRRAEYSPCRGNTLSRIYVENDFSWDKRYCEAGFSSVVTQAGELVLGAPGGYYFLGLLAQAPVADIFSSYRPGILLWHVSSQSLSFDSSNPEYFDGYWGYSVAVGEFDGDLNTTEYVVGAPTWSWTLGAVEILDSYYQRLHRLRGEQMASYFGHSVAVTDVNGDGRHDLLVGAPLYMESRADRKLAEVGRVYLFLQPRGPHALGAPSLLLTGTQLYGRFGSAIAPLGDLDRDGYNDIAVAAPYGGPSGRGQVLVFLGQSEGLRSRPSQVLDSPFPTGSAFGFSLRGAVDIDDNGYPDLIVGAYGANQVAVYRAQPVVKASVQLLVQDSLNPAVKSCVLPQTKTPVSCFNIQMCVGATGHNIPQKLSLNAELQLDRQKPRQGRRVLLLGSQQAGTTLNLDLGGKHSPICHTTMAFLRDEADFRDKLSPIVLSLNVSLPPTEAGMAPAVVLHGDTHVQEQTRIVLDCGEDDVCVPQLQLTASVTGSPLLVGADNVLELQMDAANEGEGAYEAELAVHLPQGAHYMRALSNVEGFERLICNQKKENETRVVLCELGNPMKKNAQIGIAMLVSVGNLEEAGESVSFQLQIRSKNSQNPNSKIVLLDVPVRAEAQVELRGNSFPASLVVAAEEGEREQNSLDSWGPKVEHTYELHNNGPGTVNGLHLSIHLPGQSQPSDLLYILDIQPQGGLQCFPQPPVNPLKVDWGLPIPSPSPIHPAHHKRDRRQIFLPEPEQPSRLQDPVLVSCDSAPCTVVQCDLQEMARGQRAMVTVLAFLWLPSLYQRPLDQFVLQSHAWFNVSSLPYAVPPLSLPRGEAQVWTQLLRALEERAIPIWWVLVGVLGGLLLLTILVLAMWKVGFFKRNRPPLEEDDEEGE
ADP-induced human platelet aggregation, sequence (P05106 27-788): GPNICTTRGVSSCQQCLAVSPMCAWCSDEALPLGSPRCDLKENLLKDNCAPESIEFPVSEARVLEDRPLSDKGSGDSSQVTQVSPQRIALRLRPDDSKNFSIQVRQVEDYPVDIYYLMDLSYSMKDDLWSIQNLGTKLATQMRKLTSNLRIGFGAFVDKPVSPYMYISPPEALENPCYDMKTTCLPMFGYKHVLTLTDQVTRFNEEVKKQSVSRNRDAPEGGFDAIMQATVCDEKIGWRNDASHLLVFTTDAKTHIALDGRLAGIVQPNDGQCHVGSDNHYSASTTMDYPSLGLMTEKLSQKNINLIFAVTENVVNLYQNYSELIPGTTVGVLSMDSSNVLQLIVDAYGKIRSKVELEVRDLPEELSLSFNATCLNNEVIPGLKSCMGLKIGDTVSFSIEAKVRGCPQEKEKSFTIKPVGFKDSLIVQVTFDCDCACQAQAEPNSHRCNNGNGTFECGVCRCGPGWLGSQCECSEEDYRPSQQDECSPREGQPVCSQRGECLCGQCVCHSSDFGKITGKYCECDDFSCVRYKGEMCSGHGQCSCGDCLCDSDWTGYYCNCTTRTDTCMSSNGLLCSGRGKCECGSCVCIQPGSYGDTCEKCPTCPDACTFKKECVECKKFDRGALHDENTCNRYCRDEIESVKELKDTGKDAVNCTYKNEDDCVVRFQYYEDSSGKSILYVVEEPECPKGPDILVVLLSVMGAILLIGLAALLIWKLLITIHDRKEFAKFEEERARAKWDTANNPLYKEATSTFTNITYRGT

Row | Molecule | IC50 [µM]
1 | Acetyl-C-K-G-D-C-NH2 [Analog #8] | 200
2 | CKGDIPC-NH2 (cysteine pairing not given here) [Analog #41] | 100
3 | NCCC[C@@H]1NC(=O)[C@@H](N)CSSC[C@@H](C(N)=O)NC(=O)[C@@H]2CCCN2C(=O)[C@H](Cc2c[nH]c3ccccc23)NC(=O)[C@H](CC(=O)O)NC(=O)CNC1=O [Analog #36, C-Orn-G-D-W-P-C-NH2] (H-C[Orn]GDWPC-NH2; disulfide 1-7) | 150 to 200
4 | NCCCC[C@@H]1NC(=O)[C@@H](N)CSSC[C@@H](C(N)=O)NC(=O)[C@@H]2CCCN2C(=O)[C@H](Cc2ccc([N+](=O)[O-])cc2)NC(=O)[C@H](CC(=O)O)NC(=O)CNC1=O [Analog #44, C-K-G-D-(4-NO2 -Phe)-P-C-NH2] (H-CKGD[Phe(4-NO2)]PC-NH2; disulfide 1-7) | 75
5 | CKGDFPC-NH2 (cysteine pairing not given here) [Analog #13] | 20
6 | CKGD[Phe(4-Cl)]P-NH2 [Analog #42] | 20
7 | CC1(C)SSCCC(=O)N[C@@H](CCCCN)C(=O)NCC(=O)N[C@H](CC(=O)O)C(=O)N[C@@H](Cc2c[nH]c3ccccc23)C(=O)N2CCC[C@H]2C(=O)N[C@@H]1C(N)=O [Analog #54, Mpr-K-G-D.dagger.-W-P-Pen-NH2] ([Mpa]KG[dD]WP[Pen]-NH2; disulfide 1-7) | > 100
8 | NCCCC[C@@H]1NC(=O)CCSSC[C@@H](C(N)=O)NC(=O)[C@@H]2CSCN2C(=O)[C@H](Cc2c[nH]c3ccccc23)NC(=O)[C@H](CC(=O)O)NC(=O)CNC1=O [Analog #55, Mpr-K-G-D-W-(Thz)-C-NH2] ([Mpa]KGDW[Thz]C-NH2; disulfide 1-7) | 2
9 | CKADWPC-NH2 (cysteine pairing not given here) [Analog #37] | 100
10 | CC1(C)SSCCC(=O)N[C@@H](CCCCNC(=N)N)C(=O)NCC(=O)N[C@@H](CC(=O)O)C(=O)N[C@@H](Cc2c[nH]c3ccccc23)C(=O)N2CCC[C@H]2C(=O)N[C@@H]1C(N)=O [Analog #63, Mpr-(Har)-G-D-W-P-Pen-NH2] ([Mpa][hArg]GDWP[Pen]-NH2; disulfide 1-7) | 0.1
11 | [Mpa]KGD[2Nal]P[Pen]-NH2 (cysteine pairing not given here) [Analog #57] | 1
12 | Mpr-Har-Sar-D-W-P-C-NH2 [Analog #68] | 3
13 | CC(=N)NCCCC[C@@H]1NC(=O)CCSSC[C@@H](C(N)=O)NC(=O)[C@@H]2CCCN2C(=O)[C@H](Cc2c[nH]c3ccccc23)NC(=O)[C@H](CC(=O)O)NC(=O)CNC1=O [Analog #64, Mpr-(Acetimidyl-Lys)-G-D-W-P-C-NH2] ([Mpa][X2]GDWPC-NH2; disulfide 1-7) | 0.25
14 | CC1(C)SSCCC(=O)N[C@@H](CCCCN)C(=O)NCC(=O)N[C@@H](CC(=O)O)C(=O)N[C@H](Cc2c[nH]c3ccccc23)C(=O)N2CCC[C@H]2C(=O)N[C@@H]1C(N)=O [Analog #50, Mpr-K-G-D-W.dagger.-P-Pen-NH2] ([Mpa]KGD[dW]P[Pen]-NH2; disulfide 1-7) | > 200
15 | CC1(C)SSCCC(=O)N[C@@H](CCCCN)C(=O)NCC(=O)N[C@@H](CC(=O)O)C(=O)N[C@@H](Cc2c[nH]c3ccccc23)C(=O)N2CCCC[C@H]2C(=O)N[C@@H]1C(N)=O [Analog #59, Mpr-K-G-D-W-(Pip)-Pen-NH2] ([Mpa]KGDW[Pip][Pen]-NH2; disulfide 1-7) | 1
16 | CC1(C)SSCCC(=O)N[C@@H](CCCCN)C(=O)NCC(=O)N[C@@H](CC(=O)O)C(=O)N[C@@H](Cc2c[nH]c3ccccc23)C(=O)N2CCC[C@@H]2C(=O)N[C@@H]1C(N)=O [Analog #53, Mpr-K-G-D-W-P.dagger.-Pen-NH2] ([Mpa]KGDW[dP][Pen]-NH2; disulfide 1-7) | > 200
17 | CHGDWPC-NH2 (cysteine pairing not given here) [Analog #46] | 200

Same assay, conditions: PAI activity, Example 15; read-out: Appr.IC20

Row | Molecule | IC20 [µM]
18 | C[C@H]1C(=O)N[C@@H](CCCCNC(=N)N)C(=O)NCC(=O)N[C@@H](CC(=O)O)C(=O)N[C@@H](Cc2c[nH]c3ccccc23)C(=O)N2CCC[C@H]2C(=O)N[C@H](C(N)=O)CSSCCC(=O)N1C [PAI 89, Mpr-(N-Me-Ala)-Har-G-D-W-P-C-NH2] ([Mpa][NMeA][hArg]GDWPC-NH2; disulfide 1-8) | 0.62
19 | CC(C)[C@@H]1NC(=O)CCSSC[C@@H](C(N)=O)NC(=O)[C@@H]2CCCN2C(=O)[C@H](Cc2c[nH]c3ccccc23)NC(=O)[C@H](CC(=O)O)NC(=O)CNC(=O)[C@H](CCCCNC(=N)N)NC1=O [PAI 91, Mpr-V-Har-G-D-W-P-C-NH2] ([Mpa]V[hArg]GDWPC-NH2; disulfide 1-8) | 0.35
20 | C[C@H]1NC(=O)[C@@H]2CCCN2C(=O)[C@H](Cc2c[nH]c3ccccc23)NC(=O)[C@H](CC(=O)O)NC(=O)CNC(=O)[C@H](CCCCNC(=N)N)NC(=O)CCSSC[C@@H](C(N)=O)NC1=O [PAI 96, Mpr-Har-G-D-W-P-A.dagger.-C-NH2] ([Mpa][hArg]GDWP[dA]C-NH2; disulfide 1-8) | 0.23
21 | CN1C(=O)CCSSC[C@@H](C(N)=O)NC(=O)[C@@H]2CCCN2C(=O)[C@H](Cc2c[nH]c3ccccc23)NC(=O)[C@H](CC(=O)O)NC(=O)CNC(=O)[C@H](CCCCNC(=N)N)NC(=O)[C@@H]1CCCNC(=N)N [PAI 84, Mpr-(N-Me-Arg)-Har-G-D-W-P-C-NH2] ([Mpa][NMeR][hArg]GDWPC-NH2; disulfide 1-8) | 0.25
22 | C[C@@H]1NC(=O)[C@@H]2CCCN2C(=O)[C@H](Cc2c[nH]c3ccccc23)NC(=O)[C@H](CC(=O)O)NC(=O)CNC(=O)[C@H](CCCCNC(=N)N)NC(=O)CCSSC[C@@H](C(N)=O)NC1=O [PAI 93, Mpr-Har-G-D-W-P-A-C-NH2] ([Mpa][hArg]GDWPAC-NH2; disulfide 1-8) | 3.33
23 | C[C@@H]1NC(=O)CCSSC(C)(C)[C@@H](C(N)=O)NC(=O)[C@@H]2CCCN2C(=O)[C@H](Cc2c[nH]c3ccccc23)NC(=O)[C@H](CC(=O)O)NC(=O)CNC(=O)[C@H](CCCCNC(=N)N)NC1=O [PAI 100, Mpr-A-(Har)-G-D-W-P-Pen-NH2] ([Mpa]A[hArg]GDWP[Pen]-NH2; disulfide 1-8) | 0.37
24 | N=C(N)NCCCC[C@@H]1NC(=O)CCSSC[C@@H](C(N)=O)NC(=O)[C@@H]2CCCN2C(=O)[C@@H]2CCCN2C(=O)[C@H](Cc2c[nH]c3ccccc23)NC(=O)[C@H](CC(=O)O)NC(=O)CNC1=O [PAI 97, Mpr-Har-G-D-W-P-P-C-NH2] ([Mpa][hArg]GDWPPC-NH2; disulfide 1-8) | 1.4
25 | CC(C)C[C@H]1C(=O)N[C@@H](CCCCNC(=N)N)C(=O)NCC(=O)N[C@@H](CC(=O)O)C(=O)N[C@@H](Cc2c[nH]c3ccccc23)C(=O)N2CCC[C@H]2C(=O)N[C@H](C(N)=O)CSSCCC(=O)N1C [PAI 88, Mpr-(N-Me-Leu)-Har-G-D-W-P-C-NH2] ([Mpa][NMeL][hArg]GDWPC-NH2; disulfide 1-8) | 0.84
26 | N=C(N)NCCCC[C@@H]1NC(=O)[C@@H]2CCCN2C(=O)CCSSC[C@@H](C(N)=O)NC(=O)[C@@H]2CCCN2C(=O)[C@H](Cc2c[nH]c3ccccc23)NC(=O)[C@H](CC(=O)O)NC(=O)CNC1=O [PAI 80, Mpr-P-Har-G-D-W-P-C-NH2] ([Mpa]P[hArg]GDWPC-NH2; disulfide 1-8) | 1.29
27 | N=C(N)NCCCC[C@@H]1NC(=O)[C@H](CO)NC(=O)CCSSC[C@@H](C(N)=O)NC(=O)[C@@H]2CCCN2C(=O)[C@H](Cc2c[nH]c3ccccc23)NC(=O)[C@H](CC(=O)O)NC(=O)CNC1=O [PAI 92, Mpr-S-Har-G-D-W-P-C-NH2] ([Mpa]S[hArg]GDWPC-NH2; disulfide 1-8) | 0.24
